The values below come from patent US11116212B2, “Carbonyl containing compounds for controlling and repelling Cimicidae populations” (SemiosBio Technologies Inc., priority 2011, dated 2021).

In this assay the test system is bed bugs, Cimex lectularius. The assay is described as follows: Bed bug repellency bioassay, glass tube olfactometer arena. Particulars: for pest or weed control at 25 % strength / pest or weed control at 1 % / pest or weed control at 5 % strength: Cimex lectularius; for pest or weed control at 25 % strength: 20 uL; for pest or weed control at 5 % strength: 50 uL. It counts as in vivo. The protocol:
Per individual bioassay, 10 adult or late instar nymph bed bugs, Cimex lectularius, of mixed sex. Bed bugs sourced from wild, field populations and tested within 2 weeks of capture. Subjects were tested one time, only.
(ii) Olfactometer consisting of a glass tube. Tube ends were plugged to prevent egress of test subjects. Test substrates were placed at opposite ends of the tube. Tube Olfactometer includes a port in the centre for introduction of test subjects. Dimensions of the tube were 15.2 mm in diameter by 304.8 mm long.
Compounds were either purchased from commercial sources or synthesized using conventional synthetic organic chemistry techniques (see, for example, Examples 5 to 7). Some compounds (014, 058 and 080) were tested in duplicate (one version from commercial sources and one synthesized) and the best performance is reported in the Tables below. Of the tested compounds reported in the Tables below, the following compounds were synthesized: 006, 010, 017, 018, 040, 041 to 043, 045, 046, 048, 049, 058, 067 to 075, 079, 080 to 082, 089 and 090.
Test compounds consisted of a control and treatment. The treatment consisted of a test compound mixed as a percentage w/w in a suitable solvent. The test compound solvent itself was used as a control. Solvents used were hexane, hexane:methanol, or dichloromethane:methanol.
(i) Gauze cut to a standard size and folded upon itself to provide harbourage for test subjects.
(iii) Absorbent polymer “aroma” beads that were given sufficient time to fully absorb test compounds and control solvents.
In the case of gauze and filter paper substrates, control solvents and test mixtures of known concentrations and volumes were dispensed directly onto substrates using a pipette. For polymer beads, beads were mixed w/w with solvent or test compound in a small glass jar. The jars were occasionally agitated to facilitate soaking of the beads.
Immediately after the substrates were infused with test compounds and control solvents, test subjects were introduced to the centre of the selected observation arena. […] Only subjects that were in close contact with the treatment or control substrates were recorded. Subjects elsewhere in the arena were not included in repellency calculations. Percentage repellency was calculated based on a modification of Abbott's formula to account for negative repellency (attraction). Specifically: IF(C>=T,(C−T)/C*100,(T−C)/T*−100)
where C is number of test subjects in contact with control substrate and T is number of test subjects in contact with treatment substrate.
All average repellency results reported in the table are based on 3 replicates for each reported trial, with each trial involving at least 3 observation periods. The observation periods were short-term (30 min), medium-term (1-2 hours), and long-term (24-48 hours). The “overall average” reported in the table represents the average for 3 replicates for 3 observation periods. […]
To determine whether compounds could be combined in the repellent compositions, compounds 14 and 35 were each tested at a concentration of 5% (w/w), and as a combination comprising each compound at a concentration of 2.5% (w/w). The formulations were tested as described in Example 1 using the olfactometer configuration.

Where [1] appears, read: beads, 25% w/w in hexane, average of 3 replicates x 3 observation periods, read-out: % Repellency (% R), Overall Average.
Where [2] appears, read: gauze, 10 uL, 1% v/v in hexane, average of 3 replicates x 3 observation periods, read-out: % Repellency (% R), Overall Average.
[3] abbreviates: gauze, 5% w/v in hexane, average of 3 replicates x 3 observation periods, read-out: % Repellency (% R), Overall Average.

Structures can show the parent of a compound that is named as a salt. Where two headings read alike, the source gives them in different places. A value given as a limit tells only on which side of the number the result lay.

As to `COC(=O)CCC=O` [Compound 052, Methyl 4-oxobutanoate], the pest or weed control at 25 % strength was -17% under setting [1]; 100% (beads, 25% w/w in hexane, best single observation (one repetition, one time), read-out: % Repellency, At least One Time >50%); 11% (observation period T1, beads, 25% w/w in hexane, read-out: % Repellency T1 (average of 3 repetitions)); -50% (observation period T2, beads, 25% w/w in hexane, read-out: % Repellency T2 (average of 3 repetitions)); -11% (observation period T3, beads, 25% w/w in hexane, read-out: % Repellency T3 (average of 3 repetitions)).
For the compound `CN(C)C(=O)CCC(=O)O` [Compound 053, 4-(Dimethylamino)-4-Oxobutanoic acid], the pest or weed control at 1 % under setting [2] was found to be 52%.
Still for that read-out and setting: in the case of `CCC(=O)C(=O)OC` [Compound 054, Methyl-2-oxobutanoate] it was more than 80%.
On to `COC(=O)/C=C/C(C)=O` [Compound 056, Methyl trans-4-oxo-2-pentenoate], for which the pest or weed control at 5 % strength under setting [3] was 53%.
`CCOC(=O)/C=C(\C)C=O` [Compound 057, Ethyl 3-methyl-4-oxocrotonate]: the pest or weed control at 25 % strength under setting [1] is more than 80%.
`COC(=O)/C=C/C(=O)OC` [Compound 058, dimethyl fumarate]: the pest or weed control at 5 % strength under setting [3] is more than 80%.
Turning to `CCC(=O)OCC1CCCO1` (stereo not shown) [Compound 060, Tetrahydro furfuryl propionate], under setting [1], the pest or weed control at 25 % strength came to 78%.
As for `CCCCCCCCCCC(C)=O` [Compound 061, 2-dodecanone], the pest or weed control at 5 % strength under setting [3] is more than 80%.
Regarding `CCC(=O)CC` [Compound 062, 3-pentanone], the pest or weed control at 5 % strength by setting is: under setting [3], 10%; (gauze, 5% w/v in hexane, best single observation (one repetition, one time), read-out: % Repellency, At least One Time >50%) 89%; (observation period T1, gauze, 5% w/v in hexane, read-out: % Repellency T1 (average of 3 repetitions)) -11%; (observation period T2, gauze, 5% w/v in hexane, read-out: % Repellency T2 (average of 3 repetitions)) -3%; (observation period T3, gauze, 5% w/v in hexane, read-out: % Repellency T3 (average of 3 repetitions)) 43%.
In the case of `CCC(=O)/C=C/C(=O)CC` [Compound 067, (E)-oct-4-ene-3,6-dione], the pest or weed control at 5 % strength (gauze, 5% w/v in hexane:methanol (1:1), average of 3 replicates x 3 observation periods, read-out: % Repellency (% R), Overall Average) is more than 80%.
For the compound `CCOC(=O)/C=C/C(=O)CC` [Compound 068, (E)-ethyl 4-oxohex-2-enoate], the pest or weed control at 1 % under setting [2] turned out to be 43%; the pest or weed control at 1 % (observation period T1, gauze, 10 uL, 1% v/v in hexane, read-out: % Repellency T1 (average of 3 repetitions)) worked out at 30%; the pest or weed control at 1 % (observation period T2, gauze, 10 uL, 1% v/v in hexane, read-out: % Repellency T2 (average of 3 repetitions)) was found to be 32%; the pest or weed control at 1 % (observation period T3, gauze, 10 uL, 1% v/v in hexane, read-out: % Repellency T3 (average of 3 repetitions)) was determined as 65%. Moreover, the “% Repellency, At least One Average >50%” value (gauze, 10 uL, 1% v/v in hexane, best average over 3 replicates for a single time period) stood at 65%.
For `CC(O)c1ccco1` (stereo not shown) [Compound 069, 1-(furan-2-yl)ethanol], the pest or weed control at 25 % strength under setting [1] was more than 80%.
As to `CCC(=O)/C=C/C(=O)O` [Compound 070, (E)-4-oxohex-2-enoic acid], the pest or weed control at 1 % (gauze, 10 uL, 1% v/v in hexane:methanol (1:1), average of 3 replicates x 3 observation periods, read-out: % Repellency (% R), Overall Average) came out at 74%.
As for `CC(C)C(O)c1ccco1` (stereo not shown) [Compound 071, 1-(furan-2-yl)-2-methylpropan-1-ol], the pest or weed control at 1 % under setting [2] turned out to be 57%.
For `CCC(C)C(O)c1ccco1` (stereo not shown) [Compound 072], under setting [3], the pest or weed control at 5 % strength was found to be 79%.
As to `CCCCC(O)c1ccco1` (stereo not shown) [Compound 073, 1-(furan-2-yl) pentan-1-ol], the pest or weed control at 5 % strength under setting [3] is more than 80%.
Take `CCC(=O)/C=C(\C)C(C)=O` [Compound 074, (E)-3-methylhept-3-ene-2,5-dione]: the pest or weed control at 25 % strength (beads, 25% w/w in dichloromethane:methanol (1:1), average of 3 replicates x 3 observation periods, read-out: % Repellency (% R), Overall Average) is more than 80%.
As for `CCC(O)c1ccco1` (stereo not shown) [Compound 075, 1-(furan-2-yl) propan-1-ol], the pest or weed control at 1 % under setting [2] was 79%.
In the case of `CCOC(=O)CCC(C)=O` [Compound 076, ethyl levulinate], the pest or weed control at 5 % strength under setting [3] turned out to be 69%.
Take `C=CC(O)c1ccco1` (stereo not shown) [Compound 078, 2-Furanmethanol, a-ethenyl-]: the pest or weed control at 25 % strength under setting [1] is more than 80%.
On to `CCOC(C#CC(=O)CC)OCC` [Compound 079, 6,6-diethoxyhex-4-yn-3-one], for which the pest or weed control at 5 % strength under setting [3] was more than 80%.
Still for that read-out and setting: with `CC(=O)c1ccco1` [Compound 080, 2-Furyl methyl ketone] the figure was more than 80%.
Turning to `CC(C)C(=O)c1ccco1` [Compound 082, 1-(2-furyl)-2-methyl-propan-1-one], the pest or weed control at 25 % strength under setting [1] is more than 80%.
As to `CC(=O)OCc1ccco1` [Compound 084, Furfuryl acetate], the pest or weed control at 25 % strength under setting [1] was determined as 61%.
On the same count and under the same terms, with `CCOC(=O)c1ccco1` [Compound 085, Ethyl 2-furoate] the figure was 73%.
